Results as given in patent US12465609B2, “Methods of treating patients suffering from a disease condition or disorder that is associated with an increased glutamate level” (veriNOS operations GmbH, priority 2022, dated 2025).

Assay: Safety and adverse event analyses, NOSTRA III
Assay type: in vivo
Method: Safety analyses was performed using standard descriptive methods.
The total number of treatment-emergent adverse events (TEAE) and the total number of patients with TEAEs, the total number of TEAEs related to the study drug (certain, probable, possible), the total number of patients with TEAEs related to the study drug, the total number of TEAEs and the total number of patients with serious TEAEs, the total number of patients with TEAEs leading to discontinuation of study treatment and the total number of patients with TEAEs leading to death were summarised by treatment arm.

## C[C@H](O)[C@H](O)C1CNc2nc(N)nc(N)c2N1 (mixture of isomers) [Ronopterin, 4-Amino-(6R,S)-5,6,7,8-tetrahydro-L-biopterin]
Ronopterin:placebo 11:3
  number of renal AEs: 11
No significant new safety findings
  tolerability of study treatment: well-tolerated
Placebo 11.7%
  proportion of patients with ICP increased (AE): 23.9%
Placebo 13
  number of patients with ICP increased (AE): 27 patients
Related AE/SAEs low and comparable
  number of adverse events (AEs) and serious adverse events (SAEs) compared to the placebo groups: slightly higher number
